Reference: publication PMC9000575, “Solution Equilibrium Studies on Salicylidene Aminoguanidine Schiff Base Metal Complexes: Impact of the Hybridization with L-Proline on Stability, Redox Activity and Cytotoxicity” (Molecules, 2022)
In brackets after ≈: the same amount, converted by molar mass. Marks after values point to notes of the source that are not given here.

Columns and labels:
Type in all cases: physicochemical
[1] = thermodynamic solubility at pH 7.4; conditions: 10 mM HEPES buffer, aqueous buffer, thermodynamic from solid, pH 7.4, T = 25 °C, read-out: thermodynamic solubility at pH 7.4 (S7.4)
[2] = proton dissociation constants by 1H NMR titration
Description: ^1H NMR spectra recorded for SISC in 30% (v/v) d6-DMSO/H2O (Figure S3) clearly show two deprotonation steps and all the CH protons are sensitive to the changes of the pH. Similarly, the changes in the chemical shifts of the peaks of the aromatic CH and the CH=N protons indicate two steps in the ^1H NMR spectra of Pro-SISC-Me recorded in water (Figure 3a), thus two pKa values were calculated (pK2, pK3 in Table 1). However, this is only true for the major species identified as the E isomer (Figure 3b), while for the other isomer (Z, Figure 3c) only one pKa (7.55 ± 0.02) could be determined. The E and Z geometric isomers are the consequence of the C=N double bond. […] Based on the integrals of the CH=N peaks, the fraction of the E isomer is 86% at pH < 6.5, and it is decreased to 82% reaching pH 11.5; however, the appearance of further minor peaks at pH > 9.8 indicates the presence of other species in low fraction. The same picture is seen when the changes of the CH3 peaks are considered (Figure S4), and only the peak of the CH-COOH proton was sensitive to the first deprotonation process at pH < 3, which confirms that pK1 of Pro-SISC-Me applies to COOH.
The ^1H NMR studies for the ligands were carried out on a Bruker Ultrashield 500 Plus instrument (Billerica, MA, USA). DSS was used as an internal NMR standard and WATERGATE water suppression pulse scheme was used. Spectra were recorded in 10% (v/v) D2O/H2O or in 30% (v/v) DMSO-d6/H2O solvent mixtures in a concentration of 1 mM, respectively, at ionic strength of 0.10 M (KCl).

[3] = stability constants of Cu(II) complexes from deconvolution of EPR spectra; conditions: water, room temperature, I = 0.10 M (KCl)
Description: All EPR spectra were recorded with a BRUKER EleXsys E500 spectrometer (microwave frequency 9.54 GHz, microwave power 13 mW, modulation amplitude 5 G, modulation frequency 100 kHz, Bruker BioSpin Corporation, Billerica, MA, USA) at 77 K for the Cu(II)—SISC complexes and at room temperature for the Cu(II)—Pro-SISC-Me species. EPR spectra were recorded at different pH values at two metal-to-ligand concentration ratios: 0.25 mM Cu(II) and 0.25 mM or 0.50 mM SISC in 30% DMSO/water solution, and 1.0 mM Pro-SISC-Me and 1.0 mM or 0.5 mM Cu(II) in water. The ionic strength was adjusted with KCl (I = 0.1 M). KOH solution was added to the stock solution to change the pH between pH = 2.5–12.5, which was measured with a Radiometer PHM240 pH/ion Meter equipped with a Metrohm 6.0234.100 glass electrode. The isotropic EPR spectra were recorded at room temperature in a circulating system, and a Heidolph Pumpdrive 5101 peristaltic pump was used to circulate the solution from the titration vessel through a capillary tube into the cavity of the instrument. For the anisotropic EPR spectra, a pH titration was performed outside of the cavity and at selected pH values, and 200 μL samples were transferred from the titration vessel into EPR tubes and the spectra were recorded in a Dewar containing liquid nitrogen.
The anisotropic EPR spectra were analyzed with the EPR program. […]

[4] = Pro-SISC-Me, H2O, major species (E isomer)

Row | solubility thermodynamic [1] [mM] | pK1 (H3L2+) [2, 4] | pK2 (H2L+) [2, 4] | pK3 (HL) [2, 4] | pKa ([2]; water, only one pKa could be determined, read-out: pKa of the minor (Z) isomer) | logβ [CuLH−1] [3] | logβ [CuL]+ [3] | pK1 (H2L+) ([2]; SISC, 30% DMSO/H2O) | pK2 (HL) ([2]; SISC, 30% DMSO/H2O) | SMILES
1 | ~10 (≈ 3190 µg/mL) | ≤2.5 ^c | 7.25 ± 0.03 ^c | 9.75 ± 0.03 ^c | 7.55 | 6.50 | 14.78 | – | – | Cc1cc(C=NNC(=N)N)c(O)c(CN2CCCC2C(=O)O)c1 (stereo not shown) [Pro-SISC-Me]
2 | ~2 (≈ 356 µg/mL) | – | – | – | – | – | – | 7.68 ± 0.03 | 10.72 ± 0.03 | N=C(N)NN=Cc1ccccc1O [SISC, 2-(2-hydroxybenzylidene)hydrazinecarboximidamide]
